Assays:
Format in all cases: cell-based, human
HOb cells [1] = test: Mineralized matrix formation assay (Alizarin Red-S) in HOb cells; conditions: for formation of mineralized bone nodules: compounds 100 μM, 12 days
Protocol: (§1) HOb cells were plated in 24-well plates. Three days after plating, the old medium was discarded and the cells were treated with tested extracts (100 μg/ml) in mineralizing media (Osteoblast Differentiation Medium containing ascorbic acid (50 μg/ml) and β-glycerophosphate (10 mM) for 12 days. At the end of experiment, cultures were fixed in 75% ethanol, and mineralized nodule formation was assessed by Alizarin Red-S staining. The bound staining was eluted with a solution of 10% cetylpyridinium chloride and quantified using a microtiter plate reader. Data are shown as mean±SD (n=3). *P<0.05 and **P<0.01 as compared with control (n=3).
as §1, with “tested compounds” for “tested extracts”, “(100 μM)” for “(100 μg/ml)”, “Differentiation Medium)” for “Differentiation Medium”
(§2) Human osteoblasts (HOb) were primary cells derived from a person from a normal femoral bone and obtained from Cell Applications (San Diego, Calif., USA). HOb cells were grown in Osteoblast Growth Medium and maintained at 37° C. in 5% CO2 humidified atmosphere. The medium was changed every other day. To maintain exponential growth, the cells were subcultured every 7 days. HOb cells were used for cell viability, differentiation, and mineralization assays.
The mineralization activities of U. crinita extract and its constituents were measured by Alizarin Red-S staining of calcium. HOb cells were seeded in 24-well plates at a density of 7×10^4 cells per well. Three days after plating, the old medium was discarded and the cells were treated with tested extracts or compounds in mineralizing media (Osteoblast Differentiation Medium) containing ascorbic acid (50 μg/ml) and β-glycerophosphate (10 mM) for 12 days. At the end of experiment, cultures were fixed in 75% ethanol, and calcium deposits were stained for 15 minutes at room temperature with Alizarin Red-S solution (40 mM, pH 4.2). The bound staining was eluted with a solution of 10% (w/v) cetylpyridinium chloride in 10 mM sodium phosphate (pH 7.0) and quantified using a ELISA reader at 550 nm.

HOb cells [2] = test: Alkaline phosphatase (ALP) assay in HOb cells; conditions: compounds 100 μM, 72 h
Protocol: (§3) HOb cells were seeded in 96-well plates. Twenty-four hours after plating, the old medium was discarded and the cells were treated with tested extracts (100 μg/ml) in Osteoblast Differentiation Medium for 72 h. ALP activity was assessed using the p-nitrophenyl phosphate disodium substrate. Data are shown as mean±SD (n=3). *P<0.05 and **P<0.01 as compared with control (n=3).
as §3, with “compounds” for “extracts”, “μM)” for “μg/ml)”
as §2
The alkaline phosphatase (ALP) activities of U. crinita extract and its constituents were measured with p-nitrophenyl phosphate as the substrate. HOb cells were seeded in 96-well plates at a density of 4×10^3 cells per well. Twenty-four hours after plating, the old medium was discarded and the cells were treated with tested extracts or compounds in Osteoblast Differentiation Medium. After 72 hours incubation, the medium was discarded and the cells rinsed twice with cold PBS, and cells were lysed with lysis buffer (PBS containing 0.1% Triton X-100). The cellular protein concentration in supernatant was determined after incubation with BCA (bicinchoninic acid) protein reagent for 1 hour at 37° C. The reaction was stopped by adding 1M NaOH, and absorbance measured at 560 nm. Furthermore, the ALP activity in supernatant was assayed by incubation for 1 hour at 37° C. in 0.1 M NaHCO3—Na2CO3 buffer, pH 10, containing 0.1% Triton X-100, 2 mM MgSO4, and 6 mM p-nitrophenyl phosphate. The reaction was stopped by adding 1M NaOH and absorbance was measured at 405 nm. Each value was normalized to the protein concentration.

HOb cells [3] = test: Cell viability (MTT) assay in HOb cells; conditions: 100 μM, 72 hours
Protocol: as §3, with “compounds” for “extracts”, “μM)” for “μg/ml)”, “Cell viability” for “ALP activity”, “MTT assay.” for “p-nitrophenyl phosphate disodium substrate.”
as §2, with “HOb cells were used for cell viability, differentiation, and mineralization assays.” left out
The cell viability of U. crinita extract and its constituents were determined using the MTT assay as described elsewhere (Scudiero et al., 1988). […] The absorbance at 600 nm was recorded using an ELISA reader. […]

Row | Compound | formation of mineralized bone nodules (HOb cells [1]) [%] | ALP activity (HOb cells [2]) [%] | mineralization activity, ranking in words (HOb cells [1]; isolated compounds, 100 μM) | cell viability (HOb cells [3]) [%]
1 | O=C1c2c(O)cc(O)cc2OCC1c1ccc(O)cc1O (stereo not shown) [Compound 1, dalbergioidin] | 107.09±2.80 | 114.10±4.41 | – | –
2 | O=c1cc(-c2ccc(O)cc2)oc2cc(O)c(C3OCC(O)C(O)C3OC3OCC(O)(CO)C3O)c(O)c12 (stereo not shown) [Compound 3] | 150.10±0.80 | 109.68±2.20 | most potent mineralization activity | –
3 | N[C@@H](Cc1c[nH]c2ccccc12)C(=O)O [Compound 5, tryptophan] | – | – | – | 80.43±1.11
4 | Nc1ncnc2c1ncn2[C@@H]1O[C@H](CO)[C@@H](O)[C@H]1O [Compound 7, adenosine] | 125.21±3.75 | 108.70±4.14 | – | –
5 | CC1=CC(=O)CC(C)(C)[C@H]1CC[C@@H](C)O[C@@H]1O[C@H](CO)[C@@H](O)[C@H](O)[C@H]1O [Compound 9, byzantionoside B] | 129.21±6.13 | 114.81±0.18 | – | –

Reference: patent publication US9044476B2, “Use of uraria in promoting osteogenesis or providing neuroprotection” (TAIPEI MEDICAL UNIVERSITY, priority 2013, dated 2015)
